What was measured:
Cytochrome P450 2A6 = biological target: T1, Cytochrome P450 2A6 (Homo sapiens, UniProt P11509); details: bti-tn-5b1-4; note: in other assays of this panel Not Active means under 50% inhibition at 10 µM
T1 sequence (P11509 whole entry): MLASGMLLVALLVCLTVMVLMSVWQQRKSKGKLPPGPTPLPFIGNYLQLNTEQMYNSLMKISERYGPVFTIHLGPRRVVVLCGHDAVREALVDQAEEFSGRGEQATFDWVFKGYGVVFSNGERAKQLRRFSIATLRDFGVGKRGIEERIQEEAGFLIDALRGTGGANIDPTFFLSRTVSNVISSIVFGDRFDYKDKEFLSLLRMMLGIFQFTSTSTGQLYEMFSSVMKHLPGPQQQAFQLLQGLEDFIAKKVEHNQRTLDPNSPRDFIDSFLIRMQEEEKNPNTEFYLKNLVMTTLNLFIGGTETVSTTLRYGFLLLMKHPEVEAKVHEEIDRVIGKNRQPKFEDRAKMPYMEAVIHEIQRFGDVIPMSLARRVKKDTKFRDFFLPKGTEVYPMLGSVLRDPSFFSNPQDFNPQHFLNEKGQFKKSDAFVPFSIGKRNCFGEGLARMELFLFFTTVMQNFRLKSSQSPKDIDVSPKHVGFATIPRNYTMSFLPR

[1] = biological target: Sigma non-opioid intracellular receptor 1 (Homo sapiens, UniProt Q99720); assay: DRUGMATRIX: Sigma1 radioligand binding (ligand: [3H] Haloperidol); type: cell membranes, Jurkat, Membrane; details: jurkat; Not Active = under 50% inhibition at 10 µM
Sequence of Sigma non-opioid intracellular receptor 1 (Q99720 whole entry): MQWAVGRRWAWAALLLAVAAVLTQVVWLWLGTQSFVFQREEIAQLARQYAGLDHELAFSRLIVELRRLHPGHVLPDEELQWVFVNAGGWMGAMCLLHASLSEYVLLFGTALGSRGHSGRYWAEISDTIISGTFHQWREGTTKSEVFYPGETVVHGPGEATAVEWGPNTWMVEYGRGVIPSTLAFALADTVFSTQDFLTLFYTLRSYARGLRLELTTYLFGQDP

[2] = biological target: T2, Angiotensin-converting enzyme (Oryctolagus cuniculus, UniProt P12822); type: tissue-based, Lung;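 note: enzymatic inhibition of angiotensin-converting enzyme measured with FAPGG as the substrate; in other assays of this panel Not Active means under 50% inhibition at 10 µM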
T2 sequence (P12822 whole entry): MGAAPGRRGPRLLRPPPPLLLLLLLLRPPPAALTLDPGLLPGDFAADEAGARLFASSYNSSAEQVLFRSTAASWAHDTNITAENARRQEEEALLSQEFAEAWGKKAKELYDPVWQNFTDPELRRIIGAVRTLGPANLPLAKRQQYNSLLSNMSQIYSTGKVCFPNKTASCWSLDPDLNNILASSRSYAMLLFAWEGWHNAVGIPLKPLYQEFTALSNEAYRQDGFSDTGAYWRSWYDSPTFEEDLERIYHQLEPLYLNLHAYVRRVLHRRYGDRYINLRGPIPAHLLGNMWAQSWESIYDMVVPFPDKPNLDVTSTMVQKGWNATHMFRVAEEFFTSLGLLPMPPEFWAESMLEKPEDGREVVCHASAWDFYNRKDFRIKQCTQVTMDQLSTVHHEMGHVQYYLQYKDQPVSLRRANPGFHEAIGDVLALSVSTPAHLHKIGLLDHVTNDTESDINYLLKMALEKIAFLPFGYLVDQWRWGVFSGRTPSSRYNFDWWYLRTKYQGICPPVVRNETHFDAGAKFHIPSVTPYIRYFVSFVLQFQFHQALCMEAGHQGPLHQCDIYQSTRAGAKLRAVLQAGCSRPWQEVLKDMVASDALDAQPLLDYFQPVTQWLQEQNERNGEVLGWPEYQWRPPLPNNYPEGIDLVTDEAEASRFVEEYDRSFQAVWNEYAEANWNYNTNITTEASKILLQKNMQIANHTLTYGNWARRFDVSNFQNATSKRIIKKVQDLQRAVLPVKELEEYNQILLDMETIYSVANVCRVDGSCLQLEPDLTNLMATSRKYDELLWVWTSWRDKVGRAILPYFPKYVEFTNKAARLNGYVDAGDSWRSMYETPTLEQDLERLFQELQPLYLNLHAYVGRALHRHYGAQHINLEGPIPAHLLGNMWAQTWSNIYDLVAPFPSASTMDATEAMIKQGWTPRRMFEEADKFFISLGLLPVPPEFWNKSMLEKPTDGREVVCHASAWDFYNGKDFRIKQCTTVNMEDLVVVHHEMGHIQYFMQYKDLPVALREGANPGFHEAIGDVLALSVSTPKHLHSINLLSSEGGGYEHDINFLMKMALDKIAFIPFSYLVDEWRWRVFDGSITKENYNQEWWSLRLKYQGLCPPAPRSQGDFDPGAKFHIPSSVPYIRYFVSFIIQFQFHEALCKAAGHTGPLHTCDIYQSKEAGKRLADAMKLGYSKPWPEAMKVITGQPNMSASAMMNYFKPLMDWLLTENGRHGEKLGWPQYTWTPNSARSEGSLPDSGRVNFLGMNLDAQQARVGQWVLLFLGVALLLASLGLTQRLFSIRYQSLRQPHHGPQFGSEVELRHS

Leukotriene C4 synthase = biological target: T3, Leukotriene C4 synthase (Cavia porcellus, UniProt A6XA80); type: tissue-based, Lung;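 note: enzyme inhibition assay of leukotriene C4 synthase, using LTA4 as the substrate; in other assays of this panel Not Active means under 50% inhibition at 10 µM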
T3 sequence (A6XA80 whole entry): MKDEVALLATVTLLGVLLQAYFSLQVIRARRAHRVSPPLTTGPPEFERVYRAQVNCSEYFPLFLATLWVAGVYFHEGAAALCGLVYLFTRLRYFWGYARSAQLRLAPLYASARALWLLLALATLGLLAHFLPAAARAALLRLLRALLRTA

[3] = biological target: Delta-type opioid receptor (Homo sapiens, UniProt P41143); type: cell membranes, HEK293, Membrane; details: hek293; note: in other assays of this panel Not Active means under 50% inhibition at 10 µM
Sequence of Delta-type opioid receptor (P41143 whole entry): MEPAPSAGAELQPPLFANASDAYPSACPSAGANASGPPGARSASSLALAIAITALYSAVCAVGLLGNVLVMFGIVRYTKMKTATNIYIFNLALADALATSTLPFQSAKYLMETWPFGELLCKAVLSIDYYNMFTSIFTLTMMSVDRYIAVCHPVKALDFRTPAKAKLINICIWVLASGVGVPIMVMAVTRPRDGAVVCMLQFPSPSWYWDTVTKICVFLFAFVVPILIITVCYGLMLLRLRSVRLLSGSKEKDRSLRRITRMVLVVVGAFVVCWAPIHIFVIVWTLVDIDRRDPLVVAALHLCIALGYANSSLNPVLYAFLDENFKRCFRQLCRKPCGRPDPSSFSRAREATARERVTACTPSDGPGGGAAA

Mu-type opioid receptor = Mu-type opioid receptor (Homo sapiens, UniProt P35372); assay: DRUGMATRIX: Opiate mu (OP3, MOP) radioligand binding (ligand: [3H] Diprenorphine); type: cell membranes, CHO-K1, Membrane; details: cho-k1; Not Active = under 50% inhibition at 10 µM
Sequence of Mu-type opioid receptor (P35372 whole entry): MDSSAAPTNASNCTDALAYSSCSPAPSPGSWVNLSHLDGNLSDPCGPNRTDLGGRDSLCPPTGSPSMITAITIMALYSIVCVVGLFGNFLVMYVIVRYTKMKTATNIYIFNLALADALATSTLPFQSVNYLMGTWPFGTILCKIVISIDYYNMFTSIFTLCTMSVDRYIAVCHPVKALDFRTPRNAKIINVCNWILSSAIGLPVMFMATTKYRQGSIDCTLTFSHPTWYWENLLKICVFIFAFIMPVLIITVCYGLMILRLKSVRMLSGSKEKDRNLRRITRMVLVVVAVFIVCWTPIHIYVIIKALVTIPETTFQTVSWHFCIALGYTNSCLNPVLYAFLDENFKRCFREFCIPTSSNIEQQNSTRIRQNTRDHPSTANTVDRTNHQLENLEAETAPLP

Insulin receptor = Insulin receptor (Rattus norvegicus, UniProt P15127); type: cell membranes, Wistar, Liver, Membrane; note: in other assays of this panel Not Active means under 50% inhibition at 10 µM
Sequence of Insulin receptor (P15127 27-759 limits assumed): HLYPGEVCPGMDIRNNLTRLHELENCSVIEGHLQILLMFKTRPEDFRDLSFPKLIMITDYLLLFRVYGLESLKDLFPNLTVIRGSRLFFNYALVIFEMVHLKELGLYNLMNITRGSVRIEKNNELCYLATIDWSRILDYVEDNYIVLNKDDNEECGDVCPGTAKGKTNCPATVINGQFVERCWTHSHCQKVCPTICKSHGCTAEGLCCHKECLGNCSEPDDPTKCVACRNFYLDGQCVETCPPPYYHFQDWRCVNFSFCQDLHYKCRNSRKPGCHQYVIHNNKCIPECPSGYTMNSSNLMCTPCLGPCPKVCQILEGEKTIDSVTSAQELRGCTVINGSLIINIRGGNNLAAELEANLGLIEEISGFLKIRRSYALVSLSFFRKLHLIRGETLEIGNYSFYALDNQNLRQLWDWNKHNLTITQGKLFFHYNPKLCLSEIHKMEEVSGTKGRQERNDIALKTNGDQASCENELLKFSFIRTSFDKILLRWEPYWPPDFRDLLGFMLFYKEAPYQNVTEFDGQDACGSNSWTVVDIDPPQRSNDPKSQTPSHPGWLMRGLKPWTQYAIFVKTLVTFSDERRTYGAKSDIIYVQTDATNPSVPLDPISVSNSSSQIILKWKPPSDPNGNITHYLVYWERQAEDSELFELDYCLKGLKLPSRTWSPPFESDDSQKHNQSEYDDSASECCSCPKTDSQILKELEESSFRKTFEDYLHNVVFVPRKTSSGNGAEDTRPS
Sequence of Insulin receptor (P15127 764-1383 limits assumed): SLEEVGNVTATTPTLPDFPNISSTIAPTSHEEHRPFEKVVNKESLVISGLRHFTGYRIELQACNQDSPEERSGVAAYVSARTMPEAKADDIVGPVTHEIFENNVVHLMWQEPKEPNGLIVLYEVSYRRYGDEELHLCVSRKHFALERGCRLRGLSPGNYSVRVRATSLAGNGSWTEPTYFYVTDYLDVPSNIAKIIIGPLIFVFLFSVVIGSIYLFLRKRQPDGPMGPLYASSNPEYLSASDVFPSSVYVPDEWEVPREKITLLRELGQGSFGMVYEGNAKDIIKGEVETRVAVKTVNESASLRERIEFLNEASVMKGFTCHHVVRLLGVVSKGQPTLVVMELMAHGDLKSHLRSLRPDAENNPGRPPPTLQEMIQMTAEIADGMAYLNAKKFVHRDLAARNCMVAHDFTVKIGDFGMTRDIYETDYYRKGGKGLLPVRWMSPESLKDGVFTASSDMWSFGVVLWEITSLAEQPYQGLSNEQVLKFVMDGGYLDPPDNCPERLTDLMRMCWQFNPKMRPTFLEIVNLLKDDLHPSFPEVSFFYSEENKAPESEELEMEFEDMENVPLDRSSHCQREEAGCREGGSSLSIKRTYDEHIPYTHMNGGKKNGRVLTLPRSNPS

C[C@](O)(CS(=O)(=O)c1ccc(F)cc1)C(=O)Nc1ccc(C#N)c(C(F)(F)F)c1 [(R)-BICALUTAMIDE]
Not Active: IC50 (Cytochrome P450 2A6) | Ki (Cytochrome P450 2A6) | IC50 [1] | IC50 [2] | IC50 (Leukotriene C4 synthase) | IC50 [3] | IC50 (Mu-type opioid receptor) | IC50 (Insulin receptor)

CCCC(=O)Nc1ccc(OCC(O)CNC(C)C)c(C(C)=O)c1 (centres undefined) [ACEBUTOLOL]
Not Active: IC50 (Cytochrome P450 2A6) | Ki (Cytochrome P450 2A6) | IC50 [1] | IC50 [2] | IC50 (Leukotriene C4 synthase) | IC50 [3] | IC50 (Mu-type opioid receptor) | IC50 (Insulin receptor)

CC(=O)Nc1ccc(O)cc1 [ACETAMINOPHEN]
Not Active: IC50 (Cytochrome P450 2A6) | Ki (Cytochrome P450 2A6) | IC50 [1] | IC50 [2] | IC50 (Leukotriene C4 synthase) | IC50 [3] | IC50 (Mu-type opioid receptor) | IC50 (Insulin receptor)

COc1cc2c(c3oc(=O)c4c(c13)CCC4=O)[C@@H]1C=CO[C@@H]1O2 [AFLATOXIN]
Not Active: IC50 (Cytochrome P450 2A6) | Ki (Cytochrome P450 2A6) | IC50 [1] | Ki [1] | IC50 [2] | Ki [2] | IC50 (Leukotriene C4 synthase) | Ki (Leukotriene C4 synthase) | IC50 [3] | Ki [3] | IC50 (Mu-type opioid receptor) | Ki (Mu-type opioid receptor) | IC50 (Insulin receptor) | Ki (Insulin receptor)

N=C(N)NC(=O)c1nc(Cl)c(N)nc1N [AMILORIDE]
Not Active: IC50 (Cytochrome P450 2A6) | Ki (Cytochrome P450 2A6) | IC50 [1] | IC50 [2] | IC50 (Leukotriene C4 synthase) | IC50 [3] | IC50 (Mu-type opioid receptor) | IC50 (Insulin receptor)

Cc1cc(=O)n(-c2ccccc2)n1C [ANTIPYRINE]
Not Active: IC50 (Cytochrome P450 2A6) | Ki (Cytochrome P450 2A6) | IC50 [1] | IC50 [2] | IC50 (Leukotriene C4 synthase) | IC50 [3] | IC50 (Mu-type opioid receptor) | IC50 (Insulin receptor)

CN1C(=O)COc2c(C(=O)NC3CN4CCC3CC4)cc(Cl)cc21 (centres undefined) [AZASETRON]
Not Active: IC50 (Cytochrome P450 2A6) | Ki (Cytochrome P450 2A6) | IC50 [1] | IC50 [2] | IC50 (Leukotriene C4 synthase) | IC50 [3] | IC50 (Mu-type opioid receptor) | IC50 (Insulin receptor)

C[C@H]1C[C@H]2[C@@H]3CCC4=CC(=O)C=C[C@]4(C)[C@@]3(Cl)[C@@H](O)C[C@]2(C)[C@@]1(O)C(=O)CO [BECLOMETHASONE]
Not Active: IC50 (Cytochrome P450 2A6) | Ki (Cytochrome P450 2A6) | IC50 [1] | IC50 [2] | IC50 (Leukotriene C4 synthase) | IC50 [3] | IC50 (Mu-type opioid receptor) | IC50 (Insulin receptor)

CCOC(=O)[C@H](CCc1ccccc1)N[C@H]1CCc2ccccc2N(CC(=O)O)C1=O [BENAZEPRIL]
Not Active: IC50 (Cytochrome P450 2A6) | Ki (Cytochrome P450 2A6) | IC50 [1] | IC50 [2] | IC50 (Leukotriene C4 synthase) | IC50 [3] | IC50 (Mu-type opioid receptor) | IC50 (Insulin receptor)

Nc1c(CC(=O)O)cccc1C(=O)c1ccc(Br)cc1 [BROMFENAC]
Not Active: IC50 (Cytochrome P450 2A6) | Ki (Cytochrome P450 2A6) | IC50 [1] | IC50 [2] | IC50 (Leukotriene C4 synthase) | IC50 [3] | IC50 (Mu-type opioid receptor) | IC50 (Insulin receptor)

CCCCN1CCCCC1C(=O)Nc1c(C)cccc1C.Cl (centres undefined) [BUPIVACAINE HYDROCHLORIDE]
Not Active: IC50 (Cytochrome P450 2A6) | Ki (Cytochrome P450 2A6) | IC50 [1] | IC50 [2] | IC50 (Leukotriene C4 synthase) | IC50 [3] | IC50 (Mu-type opioid receptor) | IC50 (Insulin receptor)

CC1=C(C(=O)O)N2C(=O)[C@@H](NC(=O)[C@H](N)c3ccccc3)[C@H]2SC1 [CEPHALEXIN ANHYDROUS]
Not Active: IC50 (Cytochrome P450 2A6) | Ki (Cytochrome P450 2A6) | IC50 [1] | IC50 [2] | IC50 (Leukotriene C4 synthase) | IC50 [3] | IC50 (Mu-type opioid receptor) | IC50 (Insulin receptor)

ClC(Cl)Cl [CHLOROFORM]
Not Active: IC50 (Cytochrome P450 2A6) | Ki (Cytochrome P450 2A6) | IC50 [1] | IC50 [2] | IC50 (Leukotriene C4 synthase) | IC50 [3] | IC50 (Mu-type opioid receptor) | IC50 (Insulin receptor)

C=C1CC[C@H](O)C/C1=C/C=C1\CCC[C@]2(C)[C@@H]([C@H](C)CCCC(C)C)CC[C@@H]12 [CHOLECALCIFEROL]
Not Active: IC50 (Cytochrome P450 2A6) | Ki (Cytochrome P450 2A6) | IC50 [1] | IC50 [2] | IC50 (Leukotriene C4 synthase) | IC50 [3] | IC50 (Mu-type opioid receptor) | IC50 (Insulin receptor)

C[N+](C)(C)CCO.[Cl-] [CHOLINE CHLORIDE]
Not Active: IC50 (Cytochrome P450 2A6) | Ki (Cytochrome P450 2A6) | IC50 [1] | IC50 [2] | IC50 (Leukotriene C4 synthase) | IC50 [3] | IC50 (Mu-type opioid receptor) | IC50 (Insulin receptor)

CCOC(=O)C(C)(C)Oc1ccc(Cl)cc1 [CLOFIBRATE]
Not Active: IC50 (Cytochrome P450 2A6) | Ki (Cytochrome P450 2A6) | IC50 [1] | IC50 [2] | IC50 (Leukotriene C4 synthase) | IC50 [3] | IC50 (Mu-type opioid receptor) | IC50 (Insulin receptor)

From ChEMBL document CHEMBL1909046, “DrugMatrix in vitro pharmacology data”
